ChEMBL document CHEMBL1138613, “1,5-Benzodiazepine inhibitors of HCV NS5B polymerase” (Bioorg Med Chem Lett, 2009)

Columns and labels:
[1] = Inhibition of HCV NS5B polymerase; set-up: species or system Hepacivirus hominis
[2] = tested on: Hepatitis C virus; assay: Inhibition of HCV 1b J4 recombinant NS5B Cdelta 21 polymerase overexpressed in Escherichia coli BL21 (DE3) assessed as [alpha33P]UTP incorporation by scintillation proximity analysis; set-up: species or system Hepatitis C virus subtype 1b
[3] = tested on: Hepatitis C virus; assay: Antiviral activity against HCV 1b in human HuH7cells by luciferase reporter replicon assay; assay type: functional, organism-based, Hepacivirus hominis; details: genotype 1b, Huh-7
[4] = Cytotoxicity against human HuH7 cells after 5 days by ATPlite luminescence assay; assay type: cell-based, Huh-7
[5] = Selectivity index, ratio of CC50 for human HuH7 cells to EC50 for HCV 1b in human HuH7cells; assay type: functional, Huh-7
[6] = Apparent permeability from apical to basolateral side of human Caco-2 cells; assay type: ADME, cell-based

SMILES	IC50 [1] [µM]	IC50 [2] [µM]	EC50 [3] [µM]	CC50 at 120 h [4] [µM]	Selectivity Index [5]	Papp A→B [6] [×10⁻⁶ cm/s]
O=C(O)/C(=C/c1ccc(Oc2ccccc2Br)cc1)NC(=O)c1ccccc1	0.1	–	–	–	–	–
O=C(O)/C(=C/c1ccc(Oc2ccccc2)cc1)NC(=O)c1ccccc1	17	–	–	–	–	–
O=C(O)/C(=C/c1ccc(Oc2c(F)cccc2Br)cc1)NC(=O)c1ccccc1	0.03	–	–	–	–	–
CC1(C)CC(=O)C2=C(C1)Nc1c(O)cccc1N(C(=O)c1ccncn1)C2c1ccc(OCc2ccccc2)cc1F (stereo unspecified)	–	0.06	0.73	> 32	–	–
CC1(C)CC(=O)C2=C(C1)Nc1c(O)cccc1N(C(=O)c1nccs1)C2c1ccc(OCc2ccccc2)cc1F (stereo unspecified)	–	0.111	1.7	19	–	–
CC1(C)CC(=O)C2=C(C1)Nc1c(O)cccc1N(C(=O)c1ccccn1)C2c1ccc(OCc2ccccc2)cc1F (stereo unspecified)	–	0.051	0.36	15	–	–
CC(=O)N1c2cccc(O)c2NC2=C(C(=O)CC(C)(C)C2)C1c1ccc(Oc2ccccc2)cc1Cl (stereo unspecified)	–	0.16	9.9	–	–	–
CC(=O)N1c2cccc(O)c2NC2=C(C(=O)CC(C)(C)C2)C1c1ccc(Cl)cc1Cl (stereo unspecified)	–	0.1	3	–	–	–
CC(=O)N1c2cccc(O)c2NC2=C(C(=O)CC(C)(C)C2)[C@@H]1c1ccc(Cl)cc1Cl	–	–	2.42	–	–	–
CC(=O)N1c2ccncc2NC2=C(C(=O)CC(C)(C)C2)C1c1ccc(Cl)cc1Cl (stereo unspecified)	–	0.51	> 32	–	–	–
CC(=O)N1c2ncnc(O)c2NC2=C(C(=O)CC(C)(C)C2)C1c1ccc(Cl)cc1Cl (stereo unspecified)	–	> 32	> 32	–	–	–
CC(=O)N1c2cccc(O)c2NC2=C(C(=O)CC(C)(C)C2)C1C1CCCCC1 (stereo unspecified)	–	22	0.74	–	–	–
CC(=O)N1CC2=C(CC(C)(C)CC2=O)Nc2c(O)cccc21	–	> 32	> 32	–	–	–
Cc1nc(C(=O)N2c3cccc(O)c3NC3=C(C(=O)CC(C)(C)C3)C2c2ccc(OCc3ccccc3)cc2F)cs1 (stereo unspecified)	–	0.143	0.97	> 32	–	–
CC(=O)N1c2ncccc2NC2=C(C(=O)CC(C)(C)C2)C1c1ccc(Cl)cc1Cl (stereo unspecified)	–	8.04	> 32	–	–	–
CC(C)C(=O)N1c2cccc(O)c2NC2=C(C(=O)CC(C)(C)C2)C1c1ccc(OCc2ccccc2)cc1F (stereo unspecified)	–	0.123	1.3	14	–	–
CC(=O)N1c2cccc(O)c2NC2=C(C(=O)CC(C)(C)C2)C1c1ccco1 (stereo unspecified)	–	21	43	–	–	–
CC(=O)N1c2cccc(O)c2NC2=C(C(=O)CC(C)(C)C2)C1c1nccn1C (stereo unspecified)	–	> 32	> 32	–	–	–
Cc1cc(OCc2ccccc2)ccc1C1C2=C(CC(C)(C)CC2=O)Nc2c(O)cccc2N1C(=O)C(C)C (stereo unspecified)	–	0.124	1.6	15	–	–
CC(=O)N1c2ccccc2NC2=C(C(=O)CC(C)(C)C2)C1c1ccc(Cl)cc1Cl (stereo unspecified)	–	3.1	> 32	–	–	–
CC(=O)N1c2cccc(Br)c2NC2=C(C(=O)CC(C)(C)C2)C1c1ccc(Cl)cc1Cl (stereo unspecified)	–	6.12	7.8	–	–	–
CC(=O)N1c2cccc(C#N)c2NC2=C(C(=O)CC(C)(C)C2)C1c1ccc(Cl)cc1Cl (stereo unspecified)	–	6.97	15.4	–	–	–
Cc1cccc(C(=O)N2c3cccc(O)c3NC3=C(C(=O)CC(C)(C)C3)C2c2ccc(OCc3ccccc3)cc2F)n1 (stereo unspecified)	–	0.07	0.5	18	–	–
CC1(C)CC(=O)C2=C(C1)Nc1c(O)cccc1N(C(=O)c1cccc(F)n1)C2c1ccc(OCc2ccccc2)cc1F (stereo unspecified)	–	0.077	0.86	> 32	–	–
CC1(C)CC(=O)C2=C(C1)Nc1c(O)cccc1N(C(=O)c1cscn1)C2c1ccc(OCc2ccccc2)cc1F (stereo unspecified)	–	0.039	0.76	29	–	–
Cc1nc(C(=O)N2c3cccc(O)c3NC3=C(C(=O)CC(C)(C)C3)[C@@H]2c2ccc(OCc3ccccc3)cc2F)c(C)o1	–	0.029	0.27	28	100	10.9

SMILES	IC50 [1] [µM]	IC50 [2] [µM]	EC50 [3] [µM]	CC50 at 120 h [4] [µM]	Selectivity Index [5]	Papp A→B [6] [×10⁻⁶ cm/s]
Cc1cc(C(=O)N2c3cccc(O)c3NC3=C(C(=O)CC(C)(C)C3)C2c2ccc(OCc3ccccc3)cc2F)no1 (stereo unspecified)	–	0.12	1.8	45	–	–
CC1(C)CC(=O)C2=C(C1)Nc1c(O)cccc1N(C(=O)c1ncn[nH]1)C2c1ccc(OCc2ccccc2)cc1F (stereo unspecified)	–	0.021	2.4	> 32	–	–
CC1(C)CC(=O)C2=C(C1)Nc1c(O)cccc1N(C(=O)c1cccc(Cl)n1)C2c1ccc(OCc2ccccc2)cc1F (stereo unspecified)	–	0.108	0.69	13	–	–
CC1(C)CC(=O)C2=C(C1)Nc1c(O)cccc1N(C(=O)c1ccco1)C2c1ccc(OCc2ccccc2)cc1F (stereo unspecified)	–	0.075	2.2	16	–	–
Cc1nc(C(=O)N2c3cccc(O)c3NC3=C(C(=O)CC(C)(C)C3)C2c2ccc(OCc3ccccc3)cc2F)co1 (stereo unspecified)	–	0.063	1.6	29	–	–
Cc1cccc(C(=O)N2c3cccc(O)c3NC3=C(C(=O)CC(C)(C)C3)[C@@H]2c2ccc(OCc3ccccc3)cc2F)n1	–	0.089	0.4	21	50	11.6
Cc1cccc(C(=O)N2c3cccc(O)c3NC3=C(C(=O)CC(C)(C)C3)[C@H]2c2ccc(OCc3ccccc3)cc2F)n1	–	> 11	5.7	18	–	–
Cc1cc(C(=O)N2c3cccc(O)c3NC3=C(C(=O)CC(C)(C)C3)C2c2ccc(OCc3ccccc3)cc2F)nn1C (stereo unspecified)	–	0.05	1	25	–	–
Cc1nc(C(=O)N2c3cccc(O)c3NC3=C(C(=O)CC(C)(C)C3)C2c2ccc(OCc3ccccc3)cc2F)c(C)o1 (stereo unspecified)	–	0.079	0.57	28	–	–
Cc1nc(C(=O)N2c3cccc(O)c3NC3=C(C(=O)CC(C)(C)C3)[C@H]2c2ccc(OCc3ccccc3)cc2F)c(C)o1	–	27	3.6	13	–	–
CC1(C)CC(=O)C2=C(C1)Nc1c(O)cccc1N(C(=O)c1cccnc1)C2c1ccc(OCc2ccccc2)cc1F (stereo unspecified)	–	0.109	2.3	20	–	–
CC1(C)CC(=O)C2=C(C1)Nc1c(O)cccc1N(C(=O)c1ccncc1)C2c1ccc(OCc2ccccc2)cc1F (stereo unspecified)	–	0.086	3.3	76	–	–
CC(=O)N1c2cccc(O)c2NC2=C(C(=O)CC(C)(C)C2)[C@H]1c1ccc(Cl)cc1Cl	–	14.4	14.5	–	–	–
CC(=O)N1c2ncncc2NC2=C(C(=O)CC(C)(C)C2)C1c1ccc(Cl)cc1Cl (stereo unspecified)	–	0.51	> 32	–	–	–
CC(=O)N1c2cccc(O)c2NC2=C(C(=O)CC(C)(C)C2)C1c1ccc(Oc2c(F)cccc2Br)cc1Cl (stereo unspecified)	–	0.12	6.3	–	–	–
CC(C)C(=O)N1c2cccc(O)c2NC2=C(C(=O)CC(C)(C)C2)C1c1ccc(OCc2ccccc2)cc1Cl (stereo unspecified)	–	0.154	1.5	17	–	–
CC(=O)N1c2cccc(O)c2NC2=C(C(=O)CC(C)(C)C2)C1c1sccc1OCc1ccccc1 (stereo unspecified)	–	0.18	11	–	–	–
CC(=O)N1c2cccc(O)c2NC2=C(C(=O)CC(C)(C)C2)C1c1ccc(OCc2ccccc2)cc1Cl (stereo unspecified)	–	0.04	1.5	15	–	–
CC(=O)N1c2ccccc2NC2=C(C(=O)CC(C)(C)C2)[C@@H]1c1ccc(OCc2ccccc2)c(Cl)c1	–	1	–	–	–	–
CC(=O)N1c2cccc(C)c2NC2=C(C(=O)CC(C)(C)C2)C1c1ccc(Cl)cc1Cl (stereo unspecified)	–	4.78	14.6	–	–	–
CC(=O)N1c2cccc(O)c2NC2=C(C(=O)CC(C)(C)C2)C1c1ccc(Oc2ccccc2Br)cc1Cl (stereo unspecified)	–	0.1	7.1	–	–	–
CC(=O)N1c2ccccc2NC2=C(C(=O)CC(C)(C)C2)C1c1ccc(OCc2ccccc2)cc1Cl (stereo unspecified)	–	0.9	2.3	–	–	–
CC(=O)N1c2cccc(O)c2NC2=C(C(=O)CC(C)(C)C2)C1c1ccccn1 (stereo unspecified)	–	> 32	> 32	–	–	–
CC(=O)N1c2cccc(O)c2NC2=C(C(=O)CC(C)(C)C2)C1c1cn(C)c2ccccc12 (stereo unspecified)	–	13	> 32	–	–	–
CC(C)C(=O)N1c2cccc(O)c2NC2=C(C(=O)CC(C)(C)C2)C1c1ccc(OCc2ccccc2)cc1Br (stereo unspecified)	–	0.087	2.4	12	–	–
